Like-named read-outs stand apart in the source and are kept apart here.
Experiments:
Assay in all cases: Ras GTP binding domain inhibition assay (labeled GTP)
[1] = molecular target: KRas G12D mutant protein (Homo sapiens (Human), UniProt P01116, G12D)
[2] = molecular target: KRas G12C mutant (Homo sapiens (Human), UniProt P01116, G12C)
Method in brief: (§1)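 Labelled-GTP binding: plate-captured His-KRas protein was pre-exposed to compound for 3 h at room temperature (single 20 μM point or dilution series, 1% DMSO, Tris pH 7.5/MgCl2/DTT buffer). Cy3- or Cy5-GTP was then added for 45 min. Washed wells were read for retained fluorescence to give inhibition or IC50.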

[3] = molecular target: KRas G12D/Q61H double mutant (Homo sapiens (Human), UniProt P01116, G12D/Q61H)
Sequence of KRas G12D/Q61H double mutant (P01116-2 other isoform, or with tags, fused parts or gaps G12D/Q61H): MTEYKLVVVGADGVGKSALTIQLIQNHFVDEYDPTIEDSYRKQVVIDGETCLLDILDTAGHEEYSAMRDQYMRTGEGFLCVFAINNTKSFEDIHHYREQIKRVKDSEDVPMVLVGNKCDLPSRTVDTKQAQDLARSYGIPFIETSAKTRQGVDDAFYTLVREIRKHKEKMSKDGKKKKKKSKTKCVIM
Method in brief: as §1

[4] = molecular target: KRas wild type (Homo sapiens (Human), UniProt P01116)
Sequence of KRas wild type (P01116-2 other isoform, or with tags, fused parts or gaps): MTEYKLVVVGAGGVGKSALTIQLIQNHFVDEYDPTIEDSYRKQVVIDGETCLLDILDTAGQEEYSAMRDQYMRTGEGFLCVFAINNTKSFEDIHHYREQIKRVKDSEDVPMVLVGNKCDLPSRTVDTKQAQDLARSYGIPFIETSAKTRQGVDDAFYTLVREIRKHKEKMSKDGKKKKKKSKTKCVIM
Method in brief: as §1

[5] = 20 μM compound, read-out: % Inhibition at 20 μM KRas G12D
[6] = 20 μM compound, read-out: % Inhibition at 20 μM KRas G12C
[7] = 20 μM compound, read-out: % Inhibition at 20 μM KRas G12D Q61H
[8] = 20 μM compound, read-out: % Inhibition at 20 μM KRas wild type
[9] = 20 μM, read-out: KRas G12D % Inh.
[10] = 20 μM, read-out: KRas G12C % Inh.
[11] = 20 μM, read-out: KRas G12D Q61H % Inh.
[12] = 20 μM, read-out: KRas wild type, % Inh.

Sequence of KRas G12D mutant protein (P01116-2 other isoform, or with tags, fused parts or gaps G12D): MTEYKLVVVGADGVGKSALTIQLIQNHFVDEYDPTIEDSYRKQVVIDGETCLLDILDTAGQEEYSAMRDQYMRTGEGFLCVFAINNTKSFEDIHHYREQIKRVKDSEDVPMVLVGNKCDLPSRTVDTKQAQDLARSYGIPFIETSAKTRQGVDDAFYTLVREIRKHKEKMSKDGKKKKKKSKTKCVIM
Sequence of KRas G12C mutant (P01116-2 other isoform, or with tags, fused parts or gaps G12C): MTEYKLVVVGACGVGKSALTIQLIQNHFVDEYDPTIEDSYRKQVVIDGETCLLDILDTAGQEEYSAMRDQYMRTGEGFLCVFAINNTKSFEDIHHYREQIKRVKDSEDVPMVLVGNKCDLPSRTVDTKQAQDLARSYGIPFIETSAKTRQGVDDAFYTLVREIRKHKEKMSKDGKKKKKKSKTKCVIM

Structure (SMILES)	inhibition at 20 µM [1, 5]	inhibition at 20 µM [2, 6]	inhibition at 20 µM [3, 7]	inhibition at 20 µM [4, 8]	inhibition at 20 µM [1, 9]	inhibition at 20 µM [2, 10]	inhibition at 20 µM [3, 11]	inhibition at 20 µM [4, 12]	IC50 ([3]; serial dilution, read-out: KRas G12D Q61H (classes E-H, IC50))
Cc1cnc(-c2ccccn2)nc1NC(=O)COCc1ccncc1	51 to 75%	51 to 75%	51 to 75%	51 to 75%					
O=C(Nc1nnc(-c2ccccn2)[nH]1)c1ccn(-c2ccccc2)n1 [drawing 2464]					76 to 100%	51 to 75%	76 to 100%	51 to 75%	
COc1ccc(CCC(=O)Nc2nnc(-c3ccccn3)[nH]2)cc1 [drawing 2469]					25 to 50%	25 to 50%	51 to 75%	25 to 50%	
O=C(Nc1nnc(-c2ccccn2)[nH]1)c1ccc2ccccc2n1 [drawing 2472]					76 to 100%	25 to 50%	76 to 100%	51 to 75%	
CN(Cc1nnc(-c2ccccc2Cl)o1)Cc1ccccc1C(F)(F)F [drawing 2482]					25 to 50%	1 to 25%	51 to 75%	1 to 25%	
O=C(Nc1nnc(-c2ccccn2)[nH]1)C1CC(=O)N(Cc2cccc(C(F)(F)F)c2)C1 (stereo not drawn) [drawing 2547]					51 to 75%	1 to 25%	51 to 75%	25 to 50%	
O=C(Nc1nnc(-c2ccccn2)[nH]1)c1ccn(-c2cccc(Cl)c2)n1 [drawing 2559]					76 to 100%	1 to 25%	76 to 100%	25 to 50%	
CS(=O)(=O)N1CCCc2cc(C(=O)Nc3nnc(-c4ccccn4)[nH]3)ccc21 [drawing 2561]					51 to 75%	25 to 50%	76 to 100%	51 to 75%	
COc1ccc(OCc2nc(CNCCc3nnc4n3CCC4)cs2)cc1 [drawing 2565]					51 to 75%	25 to 50%	51 to 75%	1 to 25%	
O=C(Nc1nc(-c2ccccn2)cs1)c1cccc(F)c1 [drawing 2567]					51 to 75%	25 to 50%	51 to 75%	51 to 75%	
Cc1cc(C(=O)Nc2nc(-c3ccccn3)cs2)no1 [drawing 2568]					25 to 50%	25 to 50%	76 to 100%	25 to 50%	
CS(=O)(=O)Cc1ccc(C(=O)Nc2nc(-c3ccccn3)cs2)cc1 [drawing 2572]					1 to 25%	25 to 50%	51 to 75%	1 to 25%	
O=C(Nc1nc(-c2ccccn2)cs1)c1ccccn1 [drawing 2573]					51 to 75%	51 to 75%	76 to 100%	51 to 75%	
O=C(Nc1nc(-c2ccccn2)cs1)c1cccnc1 [drawing 2576]					51 to 75%	51 to 75%	51 to 75%	25 to 50%	
O=C(Nc1nc(-c2ccccn2)cs1)c1ccncc1 [drawing 2578]					51 to 75%	51 to 75%	51 to 75%	51 to 75%	
COc1cccc(C(=O)Nc2nc(-c3ccccn3)cs2)c1 [drawing 2580]					51 to 75%	51 to 75%	51 to 75%	25 to 50%	
COc1ccc(C(=O)Nc2nc(-c3ccccn3)cs2)cn1 [drawing 2581]					76 to 100%	51 to 75%	51 to 75%	51 to 75%	
O=c1nc(-c2ccccn2)[nH]c2scc(-c3ccccc3Cl)c12 [drawing 2585]					51 to 75%	25 to 50%	51 to 75%	25 to 50%	
O=c1nc(-c2ccccn2)[nH]c2c1CCC2 [drawing 2591]					51 to 75%	25 to 50%	51 to 75%	25 to 50%	
Cc1cc2c(=O)nc(-c3cc(OCC(F)F)ccn3)[nH]c2s1 [drawing 2593]					51 to 75%	25 to 50%	76 to 100%	25 to 50%	
OCCNc1nc(-c2ccccn2)nc2scc(-c3ccccc3)c12 [drawing 2603]					51 to 75%	1 to 25%	25 to 50%	1 to 25%	
COCC(C)Nc1nc(-c2ccccn2)nc2sc(C)c(-c3ccccc3)c12 (stereo not drawn) [drawing 2604]					51 to 75%	25 to 50%	51 to 75%	25 to 50%	

Structure (SMILES)	inhibition at 20 µM [1, 5]	inhibition at 20 µM [2, 6]	inhibition at 20 µM [3, 7]	inhibition at 20 µM [4, 8]	inhibition at 20 µM [1, 9]	inhibition at 20 µM [2, 10]	inhibition at 20 µM [3, 11]	inhibition at 20 µM [4, 12]	IC50 ([3]; serial dilution, read-out: KRas G12D Q61H (classes E-H, IC50))
CC(O)CNc1nc(-c2ccccn2)nc2scc(-c3ccccc3)c12 (stereo not drawn) [drawing 2607]					51 to 75%	1 to 25%	51 to 75%	25 to 50%	
NC(=O)C1(CNc2nc(-c3ccccn3)nc3c2CCC3)CCCC1 [drawing 2608]					51 to 75%	25 to 50%	51 to 75%	25 to 50%	
OCCOCCNc1nc(-c2ccccn2)nc2scc(-c3ccccc3)c12 [drawing 2609]					25 to 50%	25 to 50%	51 to 75%	25 to 50%	
Cc1sc2nc(-c3ccccn3)nc(NCCCO)c2c1-c1ccccc1 [drawing 2610]					51 to 75%	51 to 75%	51 to 75%	25 to 50%	
COC(=O)c1cccc(CN2CCC(CSc3ccccc3)C2)c1C#N (stereo not drawn) [drawing 2611]					1 to 25%	25 to 50%	25 to 50%	1 to 25%	
COC(=O)c1cc(NCc2nc(CC(C)C)no2)ccc1Cl [drawing 2612]					51 to 75%	25 to 50%	51 to 75%	1 to 25%	
Cc1cccc(CN(Cc2ccccn2)Cc2nccn2C)c1 [drawing 2613]					51 to 75%	25 to 50%	51 to 75%	25 to 50%	
COc1ccc(CCC(=O)N2CCCc3c(O)nc(-c4ccccn4)nc32)cc1 [drawing 2640]					25 to 50%	51 to 75%	51 to 75%	25 to 50%	
O=C(c1ccc2ccccc2n1)N1CCCc2c(O)nc(-c3ccccn3)nc21 [drawing 2642]					51 to 75%	51 to 75%	76 to 100%	25 to 50%	
O=C(c1ccn(-c2ccccc2)n1)N1CCCc2c(O)nc(-c3ccccn3)nc21 [drawing 2644]					51 to 75%	25 to 50%	76 to 100%	25 to 50%	
O=C(c1ccc(=O)[nH]n1)N1CCCc2c(O)nc(-c3ccccn3)nc21 [drawing 2646]	51 to 75%	25 to 50%	25 to 50%	51 to 75%					
O=C(OCCc1ccccc1)N1CCCc2c(O)nc(-c3ccccn3)nc21 [drawing 2653]	51 to 75%	25 to 50%	76 to 100%	51 to 75%					
O=C(c1ccccn1)N1CCCc2c(O)nc(-c3ccccn3)nc21 [drawing 2655]	25 to 50%	25 to 50%	51 to 75%	25 to 50%					
Oc1nc(-c2ccccn2)nc2c(Br)csc12 [drawing 2673]	25 to 50%	25 to 50%	51 to 75%	25 to 50%					
O=C(c1csc2c(O)nc(-c3ccccn3)nc12)N1CCC(N2CCCC2=O)CC1 [drawing 2679]	51 to 75%	51 to 75%	51 to 75%	51 to 75%					
O=C(c1csc2c(O)nc(-c3ccccn3)nc12)N1CCN(c2ccccc2)CC1 [drawing 2680]	51 to 75%	25 to 50%	76 to 100%	51 to 75%					5 to 10 µM
O=C(c1csc2c(O)nc(-c3ccccn3)nc12)N1CCN(c2ccncc2)CC1 [drawing 2681]	51 to 75%	25 to 50%	51 to 75%	51 to 75%					
O=C(c1csc2c(O)nc(-c3ccccn3)nc12)N1CCC(c2cccnc2)CC1 [drawing 2682]	51 to 75%	25 to 50%	51 to 75%	76 to 100%					
CC1(O)CCN(C(=O)c2csc3c(O)nc(-c4ccccn4)nc23)CC1 [drawing 2683]	51 to 75%	25 to 50%	25 to 50%	51 to 75%					
CC1(N)CCN(C(=O)c2csc3c(O)nc(-c4ccccn4)nc23)CC1 [drawing 2684]	51 to 75%	76 to 100%	76 to 100%	25 to 50%					
O=C(c1csc2c(O)nc(-c3ccccn3)nc12)N(CCO)CCOCCO [drawing 2687]	51 to 75%	51 to 75%	76 to 100%	25 to 50%					
O=C(NCCc1cccnc1)c1csc2c(O)nc(-c3ccccn3)nc12 [drawing 2689]	51 to 75%	25 to 50%	51 to 75%	76 to 100%					

— patent US10940139B2, “Compounds that interact with the Ras superfamily for the treatment of cancers, inflammatory diseases, rasopathies, and fibrotic disease” (Shy Therapeutics LLC, priority 2017, dated 2021)
